Assay results published in ChEMBL document CHEMBL3808381, “Structural Requirements and Docking Analysis of Amidine-Based Sphingosine Kinase 1 Inhibitors Containing Oxadiazoles” (ACS Med Chem Lett, 2016).

Key:
Sphingosine kinase 2 = target: T1, Sphingosine kinase 2 (Homo sapiens, UniProt Q9NRA0); assay: Inhibition of human SphK2 expressed in baculovirus infected in Sf9 cells using D-erythro-sphingosine as substrate and [gamma-32P]ATP by scintillation counting method
T1 sequence (Q9NRA0 whole entry): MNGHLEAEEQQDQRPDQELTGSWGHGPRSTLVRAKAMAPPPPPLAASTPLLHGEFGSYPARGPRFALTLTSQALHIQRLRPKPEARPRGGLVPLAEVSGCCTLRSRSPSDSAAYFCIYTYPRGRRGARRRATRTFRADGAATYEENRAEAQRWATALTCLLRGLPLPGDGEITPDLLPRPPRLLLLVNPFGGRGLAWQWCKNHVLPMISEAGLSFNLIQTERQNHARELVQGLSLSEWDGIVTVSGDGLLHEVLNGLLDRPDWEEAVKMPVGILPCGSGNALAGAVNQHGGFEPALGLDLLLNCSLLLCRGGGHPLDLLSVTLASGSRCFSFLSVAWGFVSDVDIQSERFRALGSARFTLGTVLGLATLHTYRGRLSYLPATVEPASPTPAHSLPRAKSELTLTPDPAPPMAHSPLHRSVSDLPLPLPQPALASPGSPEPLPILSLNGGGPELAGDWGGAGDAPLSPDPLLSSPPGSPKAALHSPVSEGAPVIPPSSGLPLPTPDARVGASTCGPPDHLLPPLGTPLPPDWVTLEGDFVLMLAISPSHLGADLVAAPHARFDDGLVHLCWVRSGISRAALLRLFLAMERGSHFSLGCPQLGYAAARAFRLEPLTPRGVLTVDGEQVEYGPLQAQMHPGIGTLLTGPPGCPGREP

Sphingosine kinase 1 = Sphingosine kinase 1 (Homo sapiens, UniProt Q9NYA1); assay: Inhibition of human SphK1 expressed in baculovirus infected in Sf9 cells using D-erythro-sphingosine as substrate and [gamma-32P]ATP by scintillation counting method
Sphingosine kinase 1, sequence (Q9NYA1 whole entry): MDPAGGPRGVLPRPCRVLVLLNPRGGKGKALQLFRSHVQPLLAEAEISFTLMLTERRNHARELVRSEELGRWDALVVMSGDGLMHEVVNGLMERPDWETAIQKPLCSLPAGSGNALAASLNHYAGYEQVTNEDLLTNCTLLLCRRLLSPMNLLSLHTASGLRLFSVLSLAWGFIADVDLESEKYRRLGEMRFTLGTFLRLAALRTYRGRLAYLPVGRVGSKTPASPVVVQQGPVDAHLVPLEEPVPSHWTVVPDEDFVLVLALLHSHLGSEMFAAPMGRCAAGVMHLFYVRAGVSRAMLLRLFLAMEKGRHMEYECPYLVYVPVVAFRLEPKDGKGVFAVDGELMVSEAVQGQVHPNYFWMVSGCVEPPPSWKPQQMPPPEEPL

Ki (Sphingosine kinase 2) [µM]	Ki (Sphingosine kinase 1) [nM]	Compound
9.9	70	CCCCCCCCCCCc1cccc(-c2noc(C3(C(=N)N)CC3)n2)c1
6	320	CCCCCCCCCCCCc1ccc(-c2noc(C3(C(=N)N)CC3)n2)cc1
14.1	40	CCCCCCCCCCCCc1cccc(-c2noc(C3(C(=N)N)CC3)n2)c1
11	2500	CCCCCCCCCCCCCc1ccc(-c2noc(C3(C(=N)N)CC3)n2)cc1
